In US11096975B2, “Compositions for use in the treatment of tumors resistant to chemotherapy” (PROBIOTICAL S.P.A., priority 2015, dated 2021):

Columns and labels:
[1] = test system: MDA-MB-231 (breast adenocarcinoma); experiment: Cell viability of chemoresistant MDA-MB-231 cells (Tables 1, 2, 4)
Description: (§1) The activity of the association of at least one flavonoid with synthetic chemotherapeutic agents (cyclophosphamide/methotrexate) and/or arctigenin, arctiin, berberine, berbamine, sanguinarine and chelerythrine (indicated with the term “Extracts” in the Tables) was studied in resistant cell lines of adenocarcinomas and carcinomas in comparison with chemosensitive tumour cell lines and line cells.
(§2) In particular, chemoresistant human tumour cells MDA-MB-231 (breast adenocarcinoma), ECV-304 (bladder carcinoma), HuH-7 (hepatocellular carcinoma) and HTB-43 (squamous cell carcinoma of the pharynx), chemosensitive tumour cells MCF-7 (breast adenocarcinoma) and non-tumoral healthy human mammal fibroblasts (HMF) were used.

[2] = test system: MCF-7 (breast adenocarcinoma); experiment: Cell viability of chemosensitive MCF-7 cells (Table 1); conditions: Homo sapiens, MCF7, read-out: Cell viability (%) MCF-7
Description: as §1, §2

[3] = test system: healthy human mammal fibroblasts (HMF); experiment: Cell viability of non-tumoral healthy fibroblasts HMF (Table 1); conditions: control = 100
Description: as §1, §2

[4] = test system: ECV-304 (bladder carcinoma); experiment: cells; conditions: Homo sapiens, ECV-304, read-out: Cell viability (%) ECV-304
Description: as §1, §2

[5] = test system: HTB-43 (squamous cell carcinoma of the pharynx); experiment: cells; conditions: Homo sapiens, read-out: Cell viability (%) HTB-43
Description: as §1, §2

[6] = test system: HuH-7 (hepatocellular carcinoma); experiment: cells; conditions: Homo sapiens, Huh-7, read-out: Cell viability (%) HuH-7
Description: as §1, §2

MDA-MB-231 cells = experiment: Cell viability of MDA-MB-231 cells after 7 days of treatment (Tables 7-9); type: cell-based, human
in vitro = conditions: human
Description: as §1, §2

[7] = Homo sapiens, MDA-MB-231, read-out: Cell viability (%) MDA-MB-231

**Q.** Which results are given for `O=P1(N(CCCl)CCCl)NCCCO1` (stereo not shown) [Cyclophosphamide, cyclophosphamide]?
**A.** viability at 0.85 µg/mL [1, 7]: 96%; viability at 1 µg/mL [1, 7]: 93%; viability at 1.3 µg/mL [1, 7]: 89%; viability at 0.85 µg/mL [2]: 6.9%; viability at 1 µg/mL [2]: 7.5%; viability at 1.3 µg/mL [2]: 8.6%; Cell viability (%) HMF ([3]; single agent at 850 ng/mL): 54%; Cell viability (%) HMF ([3]; single agent at 1000 ng/mL): 48%; Cell viability (%) HMF ([3]; single agent at 1300 ng/mL): 42%; viability at 0.85 µg/mL [4]: 70%; viability at 0.85 µg/mL [5]: 36%; viability at 0.85 µg/mL [6]: 58%; viability at 40 µM (MDA-MB-231 cells; Homo sapiens, MDA-MB-231, 168 h, read-out: Cell viability % (MDA-MB-231, 7 days)): 1.07 ± 0.22%

**Q.** Which results are given for `O=c1c(O)c(-c2ccc(O)c(O)c2)oc2cc(O)cc(O)c12` [Quercetin, quercetin]?
**A.** viability at 20 µM [1, 7]: 91%; viability at 50 µM [1, 7]: 81%; viability at 100 µM [1, 7]: 76%; Synergistic effect in association with cyclophosphamide ([1]; MDA-MB-231 cells, alone or with cyclophosphamide 850 ng/mL): absence of synergistic effects

**Q.** With `C[C@@H]1O[C@@H](OC[C@H]2O[C@@H](Oc3c(-c4ccc(O)c(O)c4)oc4cc(O)cc(O)c4c3=O)[C@H](O)[C@@H](O)[C@@H]2O)[C@H](O)[C@H](O)[C@H]1O` [Rutin, 2-(3,4-dihydroxyphenyl)-4,5-dihydroxy-3-{3,4,5-trihydroxy-6-[(3,4,5-trihydroxy-6-methyl-oxan-2-yl)oxymethyl}oxan-2-yl]oxy-chromen-7-one] as the compound, how does the viability at 20 µM [1, 7] read?
**A.** Its viability at 20 µM is 66%.

**Q.** What about the viability at 50 µM [1, 7] of the same compound?
**A.** Its viability at 50 µM is 58%.

**Q.** What about the viability at 100 µM [1, 7] of the same compound?
**A.** The viability at 100 µM was 51%.

**Q.** And the viability at 20 µM [2]?
**A.** Its viability at 20 µM is 8%.

**Q.** What about the viability at 50 µM [2] of the same compound?
**A.** The viability at 50 µM was 5%.

**Q.** And the viability at 100 µM [2]?
**A.** Its viability at 100 µM is 4%.

**Q.** What about the viability at 20 µM (in vitro) of the same compound?
**A.** The viability at 20 µM was 92%.

**Q.** And the viability at 50 µM (in vitro)?
**A.** Its viability at 50 µM is 88%.

**Q.** What about the viability at 100 µM (in vitro) of the same compound?
**A.** The viability at 100 µM was 86%.

**Q.** And the “Effect on cell viability of adding the flavonoid to cyclophosphamide 20 μM+methotrexate 2 μM” value (MDA-MB-231 cells; 20 μM of rutin, MDA-MB-231, 7 days)?
**A.** Its value is “further reduces cell viability”.

**Q.** And the “Effect on cell viability of adding the flavonoid to cyclophosphamide 40 μM+methotrexate 4 μM” value (MDA-MB-231 cells; rutin at 100 μM and 50 μM, MDA-MB-231, 7 days)?
**A.** Its value is “no statistically relevant difference”.
